Measurements published in patent US20230233580A1, “USE OF OXYGENATED CHOLESTEROL SULFATES FOR CANCERS AND NON-CANCEROUS TRANSFORMATIONS RELATED TO EPSTEIN-BARR VIRUS” (priority 2020, published 2023).
Where “and” joins values, the source holds several entries; their conditions need not be identical. Equal values may be shown once.

How the values were obtained:
[1] = test system: Huh-7 cells; test: Whole genome bisulfite sequencing (WGBS), promoter 5mCpG demethylation; format: cell-based, human; conditions: Huh-7, HG 72 h, 25 μM 4 h
Description: Each sample, 2 μg, was sent to EpigenDx, Inc. (Hopkinton, Mass.) for analysis of global methylation bisulfite sequencing. The same samples, 6 μg, were sent to Novogene Co., Ltd (Tianjin, China) for analysis of whole genome bisulfite sequencing (WGBS). Total RNA was isolated using the Promega SV total RNA isolation system (Madison, Wis.) with DNase treatment. Each sample, 2 μg, was used for the first-strand cDNA synthesis as recommended by the manufacturer (Invitrogen, Carlsbad, Calif.). Real-time RT-PCR was performed using SYBR Green as the indicator on ABI 7500 Fast Real-Time PCR System (Applied Biosystems, Foster City, Calif.). Amplifications of j-actin or GAPDH were used as internal controls. Relative messenger RNA (mRNA) expression was quantified with the comparative cycle threshold (Ct) method using the primer set shown in Table 1.1 and was expressed as 2^−ΔΔct.
Each sample, 5.2 μg of genomic DNA spiked with 26 ng lambda DNA, was fragmented by sonication to 200-300 bp with Covaris S220, followed by end repair and adenylation. Cytosine-methylated barcodes were ligated to sonicated DNA per the manufacturer's instructions. These DNA fragments were treated twice with bisulfite using EZ DNA Methylation-Gold™ Kit™ (Zymo Research) before the resulting single-strand DNA fragments were PCR amplified using KAPA HiFi Hot Start Uracil and Ready Mix (2×). Library concentration was quantified by Qubit® 2.0 Flurometer (Life Technologies, CA, USA) and quantitative PCR, and the insert size was assayed on an Agilent Bioanalyzer 2100 system.
The library preparations were sequenced on an Illumina Hiseq 2500/4000 or Novaseq™ platform and 125 bp/150 bp paired-end reads were generated. Image analysis and base calling were performed with Illumina CASAVA pipeline. Trimmomatic (Trimmomatic-0.36) software was used for quality control. Bismark software (version 0.16.3; Krueger F, 2011) was used to perform alignments of bisulfite-treated reads to a reference genome (−X 700-dovetail). DSS software (23) was used to identify differentially methylated regions (DMRs). KOBAS software was used to test the statistical enrichment of DMR related genes in the Kyoto Encyclopedia of Genes and Genomes (KEGG) pathways.
Each sample (6 μg) was used for analysis of the whole genome bisulfite sequencing (WGBS).

[2] = Metabolite profiling of plasma, urine, feces, intravenous dose; format: in vivo, rats; conditions: intravenous 10 mg/kg
Description: Plasma pools were made from Group 1 rats at the 0.083, 0.25, 0.5, and 1-hour collection time points.
Urine pools were prepared for Group 2 at 0 to 6 and 6 to 12 hours post-dose.
Feces pools were prepared for Group 2 at 0 to 12, 12 to 24, and 24 to 48 hours post-dose.

C[C@H](CCCC(C)(C)O)[C@H]1CC[C@H]2[C@@H]3CC=C4C[C@@H](OS(=O)(=O)O)CC[C@]4(C)[C@H]3CC[C@]12C [25HC3S, 5-Cholesten-3β, 25-diol 3-sulfate]
DMR (Methylation %) 25HC3S-Vehicle, DRD5P2 promoter ([1]; Chr1 1.43E+08): −34.73%
DMR (Methylation %) 25HC3S-Vehicle, ITPKB promoter ([1]; Chr1 2.27E+08): −25.12%
DMR (Methylation %) 25HC3S-Vehicle, MAP4K4 promoter ([1]; Chr2 1.02E+08): −13.63%
DMR (Methylation %) 25HC3S-Vehicle, ROCK2 promoter ([1]; Chr2 11344628-11344733): −23.14%
DMR (Methylation %) 25HC3S-Vehicle, PPP1CB promoter ([1]; Chr2 28751716-28751798): −10.93%
DMR (Methylation %) 25HC3S-Vehicle, ADCY5 promoter ([1]; Chr3 1.23E+08): −30.44%
DMR (Methylation %) 25HC3S-Vehicle, HRH1 promoter ([1]; Chr3 11154292-11154354): −25.48%
DMR (Methylation %) 25HC3S-Vehicle, PLCD1 promoter ([1]; Chr3 38029863-38030016): −24.31%
DMR (Methylation %) 25HC3S-Vehicle, DUSP7 promoter ([1]; Chr3 52056416-52056485): −40.47%
DMR (Methylation %) 25HC3S-Vehicle, CACNA1D promoter ([1]; Chr3 53494583-53494705): −20.46%
DMR (Methylation %) 25HC3S-Vehicle, RAPGEF2 promoter ([1]; Chr4 1.59E+08): −36.05%
DMR (Methylation %) 25HC3S-Vehicle, PDE4D promoter ([1]; Chr5 59893498-59893718): −27.84%
DMR (Methylation %) 25HC3S-Vehicle, AFDN promoter ([1]; Chr6 1.68E+08): −30.68%
DMR (Methylation %) 25HC3S-Vehicle, AL671762.1 promoter ([1]; Chr6 31828019-31828149): −27.17%
DMR (Methylation %) 25HC3S-Vehicle, CREB5 promoter ([1]; Chr7 28489448-28489601): −29.31%
DMR (Methylation %) 25HC3S-Vehicle, GLI3 promoter ([1]; Chr7 42228171-42228223): −19.62%
DMR (Methylation %) 25HC3S-Vehicle, ADCY1 promoter ([1]; Chr7 45574500-45574591): −14.76%
DMR (Methylation %) 25HC3S-Vehicle, VAV2 promoter ([1]; Chr9 1.34E+08): −33.11%
DMR (Methylation %) 25HC3S-Vehicle, GNAQ promoter ([1]; Chr9 78032198-78032440): −11.92%
DMR (Methylation %) 25HC3S-Vehicle, PTCH1 promoter ([1]; Chr9 95508446-95508561): −12.09%
DMR (Methylation %) 25HC3S-Vehicle, GABBR2 promoter ([1]; Chr9 98708549-98708610): −21.84%
DMR (Methylation %) 25HC3S-Vehicle, ADRB1 promoter ([1]; Chr10 1.14E+08): −33.1%
DMR (Methylation %) 25HC3S-Vehicle, CACNB2 promoter ([1]; Chr10 18140401-18140547): −21.91%
DMR (Methylation %) 25HC3S-Vehicle, MAPK8 promoter ([1]; Chr10 48306510-48306561): −29.24%
DMR (Methylation %) 25HC3S-Vehicle, HRAS promoter ([1]; Chr11 535071-535127): −18.85%
DMR (Methylation %) 25HC3S-Vehicle, DUSP8 promoter ([1]; Chr11 1572973-1573032): −30.51%
DMR (Methylation %) 25HC3S-Vehicle, BAD promoter ([1]; Chr11 64286088-64286179): −42.33%
DMR (Methylation %) 25HC3S-Vehicle, RELA promoter ([1]; Chr11 65661914-65662035): −35.1%
DMR (Methylation %) 25HC3S-Vehicle, CACNA1C-AS1 promoter ([1]; Chr12 2691335-2691438): −20.97%
DMR (Methylation %) 25HC3S-Vehicle, NTF3 promoter ([1]; Chr12 5432796-5432882): −33.48%
DMR (Methylation %) 25HC3S-Vehicle, EDNRB promoter ([1]; Chr13 77919496-77919743): −34.09%
DMR (Methylation %) 25HC3S-Vehicle, ABCC4 promoter ([1]; Chr13 95301634-95301736): −33.06%
DMR (Methylation %) 25HC3S-Vehicle, ADCY4 promoter ([1]; Chr14 24334570-24334719): −18.63%
DMR (Methylation %) 25HC3S-Vehicle, MAX promoter ([1]; Chr14 65102273-65102358): −31.75%
DMR (Methylation %) 25HC3S-Vehicle, SLC8A3 promoter ([1]; Chr14 70188747-70189089): −28.51%
DMR (Methylation %) 25HC3S-Vehicle, TGFB3 promoter ([1]; Chr14 75982395-75982557): −23.74%
DMR (Methylation %) 25HC3S-Vehicle, CACNA1H promoter ([1]; Chr16 1194928-1195015): −26.48%
DMR (Methylation %) 25HC3S-Vehicle, GRIN2A promoter ([1]; Chr16 10183302-10183414): −19.63%
DMR (Methylation %) 25HC3S-Vehicle, GRIN2C promoter ([1]; Chr17 74861739-74861853): −37.6% and −37.64%
DMR (Methylation %) 25HC3S-Vehicle, SPHK1 promoter ([1]; Chr17 76383180-76383291): −24.74%
DMR (Methylation %) 25HC3S-Vehicle, GRIN3B promoter ([1]; Chr19 1000331-1000405): −34.67%
DMR (Methylation %) 25HC3S-Vehicle, GADD45B promoter ([1]; Chr19 2474806-2474873): −28.6%
DMR (Methylation %) 25HC3S-Vehicle, GNA11 promoter ([1]; Chr19 3094383-3094442): −32.66%
DMR (Methylation %) 25HC3S-Vehicle, AC005264.2 promoter ([1]; Chr19 3156392-3156457): −15.76%
DMR (Methylation %) 25HC3S-Vehicle, CACNA1A promoter ([1]; Chr19 13226635-13226711): −39.91%
DMR (Methylation %) 25HC3S-Vehicle, CTB-186G2.1 promoter ([1]; Chr19 38596260-38596495): −34.3%
DMR (Methylation %) 25HC3S-Vehicle, MAP4K1 promoter ([1]; Chr19 38596260-38596495): −34.3%
DMR (Methylation %) 25HC3S-Vehicle, ATP1A3 promoter ([1]; Chr19 41999134-41999316): −15.75%
DMR (Methylation %) 25HC3S-Vehicle, GIPR promoter ([1]; Chr19 45668710-45668767): −10.04%
DMR (Methylation %) 25HC3S-Vehicle, CACNG8 promoter ([1]; Chr19 53961377-53961479): −31.18%
DMR (Methylation %) 25HC3S-Vehicle, GNAS promoter ([1]; Chr20 58888598-58888893): −25.68%
DMR (Methylation %) 25HC3S-Vehicle, MAPK1 promoter ([1]; Chr22 21867450-21867512): −7.66%
DMR (Methylation %) 25HC3S-Vehicle, PDGFB promoter ([1]; Chr22 39243967-39244084): −30.51%
amount in feces, % of dose ([2]; 0 to 48 hours post-dose pools): 2 % of dose
share of the exposure (AUC) to 25HC3S related radioactivity, plasma ([2]; up to 1 hour post-dose): approximately 54%
